From ChEMBL document CHEMBL3507680, “University of Dundee, Gates Library screen for HepG2 cell viability”

Assay: Human HepG2 cell viability assay in 384 well format
Format: toxicity, cell-based
Design: dose 125 nL, time 70.5 hour; concentration not given beside the values
Conditions: HepG2 cells, read-out: Inhibition

SMILES | cytotoxicity at 70.5 h [%]
COc1ccc(C(=O)CCC(=O)NCc2ncc(C)s2)cc1F | -9.89
CCOC(=O)c1cc2n(n1)CCCO2 | 22.1
Nc1cnc(-c2cccc3c2CCNC3)cn1 | -15.3
Cc1noc2nc(C3CCN(CC4=CCCOC4)CC3)cc(C(F)F)c12 | -7.18
CCn1cnnc1C1CCN(C(=O)c2cc(F)ccc2OC)CC1 | -10.6
COc1ccc2nnc(CCCC(=O)NCc3ccccc3)n2n1 | -13.2
CCS(=O)(=O)N1CC[C@H]2O[C@@H](c3nnc(C)o3)CC[C@H]21 | -8.41
CCn1cnnc1CNC(=O)c1cc(Cl)ccc1I | -10.9
CCN1CCN(C(=O)c2cc(NC(=O)c3ccccc3)n(C)n2)CC1 | -3.8
CC(=O)N1CCN(Cc2ccccn2)CC2(CC(=O)N(C)C2)C1 (stereo not drawn) | 0.971
Cc1cc(CCCC(=O)NC2CCN(C)C2=O)c(C)s1 (stereo not drawn) | -9.64
Cc1cnc(N2CCCC(c3ccccc3)C2)nc1-c1ncnn1C (stereo not drawn) | -9.97
COc1cc(CNCCc2cnn(C)c2)cc2c1OCCO2 | -12.1
CCN(Cc1nc2c(cnn2C)c(=O)[nH]1)c1cccc(Cl)c1 | -15.8
Cc1nn(C)c(C)c1C1CCCN1c1ncnc2sccc12 (stereo not drawn) | 3.73
CCn1ncc2c1C(COC)CN(Cc1ccc(OC)cc1)C2 (stereo not drawn) | -5.26
CCN1CCN(c2ncc(-c3cc(C)no3)c(-c3ccoc3C)n2)CC1 | -2.3
CCCC(=O)NCC(=O)NC(c1ccc(Cl)cc1)C(F)(F)F (stereo not drawn) | 8.36
Cc1cc(C)n(-c2ccc(C(=O)NCC(CO)Cc3cccs3)cc2)n1 (stereo not drawn) | -8
CC(C)(C)c1cnc(CN2CCC(CN3CCOCC3)CC2)o1 | 22.6
CCN(CC)c1ccc2ccc(C(=O)N3CCCCO3)cn12 | 3.7
CC(C)c1nc(C2CCCN(C(=O)CN(C)S(C)(=O)=O)C2)no1 (stereo not drawn) | 5.74
CC(C)CN1C[C@@H]2CN(C(=O)[C@H]3CCCO3)C[C@@H]2C1=O | -14.1

SMILES | cytotoxicity at 70.5 h [%]
CC(NC1(CNC(=O)C(C)(C)C#N)CCOCC1)c1ccccc1 (stereo not drawn) | 15.5
Cn1cc(CN2CC[C@@H]3[C@@H]2CCN3C(=O)c2cccc(F)c2)cn1 | -14.7
Cc1oc(-c2ccc(F)cc2F)nc1CN1C[C@@H](C)O[C@@H](C)C1 | 15.1
O=C(O)[C@@H]1CN(C(=O)c2ccc3[nH]nnc3c2)C[C@H]1c1cccc(F)c1 | -8.9
Cc1nn(C)cc1Cn1c(=O)cnc2ccccc21 | -19.1
CO[C@@H]1CCN(Cc2ccc(C)o2)[C@H]1Cc1ccccc1 | -1.2
Cc1nc(CNC2CCN(Cc3ccccc3)C2)sc1C (stereo not drawn) | -4.16
COc1ccc(-c2noc(CN3CCc4cncnc4C3)n2)cc1 | -8.79
O=C(c1cnn2ccccc12)N1CCCC(OCc2ccccn2)C1 (stereo not drawn) | -6.94
Cc1nnc(NC(=O)CN2CCCC2c2noc(C3CC3)n2)s1 (stereo not drawn) | 21.8
Cc1noc(C)c1CN1CCCC(c2noc(C3CC3)n2)C1 (stereo not drawn) | -7.9
CCNC(=O)CN(CC)C(=O)c1cccc(Nc2cnn(C)c2)c1 | 6.01
Cc1nn(-c2ccccc2)c(C)c1-c1ccnc(N2CCCNCC2)n1 | -2.54
CC(C)N(C)Cc1nnc2n1CCN(CC1CC1)CC2 | -0.138
Cc1cccc(CSc2nnc(C)n2CC(N)=O)c1 | -91.2
O=C(Cc1ccc(CO)cc1)N1CCN(CC2CC2)[C@@H]2CS(=O)(=O)C[C@@H]21 | 2.89
Cc1ncccc1-c1cc2cccnc2n1CCCNC(=O)C1CC1 | 1.77
Cc1cc(CN2C[C@@H]3COC[C@]3(c3nnc(C)o3)C2)no1 | 16.2
Cc1ccc(C(=O)N2CCCN(Cc3cscn3)CC2)o1 | -6.95
CC(C)Cn1nnnc1SC(C(=O)NCc1cccnc1)C(C)C (stereo not drawn) | -4.78
Cc1cnc(NC(=O)N2CCC(N3CCCCC3=O)CC2)s1 | -1.3
COc1cccc(CN2CCCCC2c2n[nH]cc2-c2cc(C)no2)c1 (stereo not drawn) | -3.89
CCOc1ccccc1C(=O)Oc1cc(=O)n2cccc(C)c2n1 | -21.9

SMILES | cytotoxicity at 70.5 h [%]
O=C(CCc1cccs1)N1CCc2[nH]nc(COc3ccccc3)c2C1 | 2.22
CCC[C@@H]1CN(C(=O)c2cc3ccccc3cc2O)C[C@H]1N(C)C | 28.4
CN(C)C(=O)N1CCN(C(=O)CCc2ccccc2)[C@H]2CS(=O)(=O)C[C@H]21 | -5.59
CCN(CC1CCOC1)S(=O)(=O)Cc1cc(Cl)ccc1OC (stereo not drawn) | -14.8
CCCC(=O)N1CCC(c2cc[nH]n2)C1 (stereo not drawn) | 0.0603
O=C(NCCc1nnc2n1CCCCC2)N1CCC2(CCCC2)CC1 | -7.24
CNc1nc(C2CCCN2)nc2c1CCN(S(=O)(=O)C1CCCCC1)C2 (stereo not drawn) | 12.5
Cn1cnn(Cc2c(F)cccc2Br)c1=O | 24.5
CCCS(=O)(=O)c1ccc(N2CCN(c3ccccn3)CC2)nn1 | 2.28
CCOCC(O)CN1CCN(C(=O)C2CCCC2)CC1 (stereo not drawn) | -0.535
COc1cccc(Cl)c1C(C(=O)O)N(C)Cc1nnc(C)o1 (stereo not drawn) | 11.6
Cc1cc2ncn(C(=O)N3CCOCC3)c2cc1C | -5.67
Cn1ccnc1C(NCc1ccccc1)c1ccc(F)cc1 (stereo not drawn) | -2.68
CC(=O)N1CCN(C(=O)CCNc2snc(Cl)c2C#N)CC1 | -10.6
Cc1noc(C)c1CN1C(=O)[C@H]2CC[C@@H]1CN(Cc1nccs1)C2 | 0.0707
CC(Cn1cncn1)NCc1ccc2nonc2c1 (stereo not drawn) | -5.99
Cc1cccc(NS(=O)(=O)c2ccc(C#N)nc2)c1C#N | -4.92
CNC(=O)[C@H]1CO[C@H]2CCN(c3ncc(F)cn3)C[C@H]2C1 | -8.64
Cc1nc(C)n(CC2CCCCN2Cc2cnc(C)s2)n1 (stereo not drawn) | -7.75
O=C(N[C@@H]1CN(c2ncccn2)C[C@@H]2CCCO[C@@H]21)c1cccnc1 | 7.96
CCn1nc(C)c(CN2CCC(c3ccc(C(=O)O)cc3)C2)c1C (stereo not drawn) | -2.74
CSCCC1c2nc[nH]c2CCN1Cc1cc(Cl)ccc1O (stereo not drawn) | -5.87
O=C(Cn1cc(-c2ccccc2)ncc1=O)Nc1nnc[nH]1 | -13.5

SMILES | cytotoxicity at 70.5 h [%]
CN(C)CCSc1ccc(NC(=O)c2nccn3ccnc23)cc1 | -2.14
OCc1n[nH]c(-c2ccc(F)cc2)n1 | -13.2
CCN1CCCC(C)(C(=O)NCc2nccn2Cc2ccccc2)C1 (stereo not drawn) | 0.597
CN(Cc1ccsc1)C(=O)Nc1ccc(N2CCCC2)nc1 | 0.563
CCc1noc(C(C)N2CCC(NS(=O)(=O)c3ccccc3)CC2)n1 (stereo not drawn) | 19.7
Cc1nn(C)c(Cl)c1C1CCCN1C(=O)CCNc1ncccn1 (stereo not drawn) | -2.34
O=S(=O)(NCc1ccccc1Cn1cncn1)C1CCCC1 | 2.05
O=C(c1cc(COc2ccc3c(c2)OCO3)[nH]n1)N1CC=CC1CO (stereo not drawn) | -8.31
CS(=O)(=O)N1CCC(Oc2ccc(C(=O)NCC3CCC3)cc2Cl)CC1 | -12.8
Cc1cccc(C(=O)N2CCCCC2c2[nH]ncc2S(C)(=O)=O)c1 (stereo not drawn) | -2.12
Cc1nc(NC2CCCCC2)cc(C2CCCNC2)n1 (stereo not drawn) | 26.4
COCC(=O)N1C[C@H]2CCC[C@@]2(COC)C1 | -5.02
Cc1cc(C)n(CCN2CCC(N(C)Cc3nnc(C)n3C)C2)n1 (stereo not drawn) | -0.44
O=C(CCn1ccnc1)N1CC[C@H](Oc2ccc(F)cc2)[C@@H](O)CC1 | 0.282
CCC(CC)CS(=O)(=O)NC(=O)C1CCC1 | -4.87
c1cc(CN2CC[C@H]3O[C@@H](COCC4CCOCC4)CC[C@H]32)ccn1 | 23.2
O=C(NCc1nccs1)N1CCOC(c2ccccc2Cl)C1 (stereo not drawn) | 10.9
Cc1n[nH]c(C2CN(C(=O)CCCn3cccn3)CCO2)n1 (stereo not drawn) | -2.71
c1ccc2[nH]c(C3CCN(Cc4nnc(C5CC5)o4)CC3)nc2c1 | -5.81
CC(=O)Nc1ccc2c(c1)C1(CCOCC1)C(=O)N2c1ccsc1 | -9.04
Cc1ncc(C(=O)N2CCC(N3CCc4ccccc4C3)CC2)c(O)n1 | 2.23
CC1=N[C@@]2(CC[C@@H]3CN(C(=O)NCC(C)C)C[C@@H]32)C(=O)N1CC(C)C | 12.3
CC(=O)Nc1nc(C(=O)NCCOc2cccc(F)c2)cs1 | -17.7

SMILES | cytotoxicity at 70.5 h [%]
COc1ccccc1C(NC(=O)C1CCC1)c1noc(C)n1 (stereo not drawn) | -5.9
CCc1nnc(N2C[C@@H](NC(C)=O)[C@H](c3ccc(C)o3)C2)s1 | 2.74
O=C(NCC1CCCO1)Nc1nnc(C(F)(F)F)s1 (stereo not drawn) | -15.8
Cc1cnn(C2CCCN(C(=O)c3cc(C4CC4)on3)C2)c1 (stereo not drawn) | -4.84
O=S(=O)(C1CC1)N1CCOCC2(CN(c3ncccn3)CCO2)C1 (stereo not drawn) | -9.2
Cn1nc(COc2cccnc2)c2c1CCN(Cc1ccco1)C2 | 4.18
O=C(c1[nH]nc(C2CC2)c1Cl)N1CCN(C2CC2)C(=O)C1 | -1.73
O=C(O)C1(Oc2ccccc2F)CCN(C/C=C/c2ccco2)CC1 | -7.74
Cc1occc1C(=O)N1CCn2c(Cn3cncn3)cnc2C1C (stereo not drawn) | 50.5
Cn1cc(NC(=O)Cc2ccccc2Br)cc1C(N)=O | -2.69
O=C(NCC1(c2cccc(F)c2)CC1)N1CCC2(CCOC2)C1 (stereo not drawn) | -7.28
CN(C)c1cc(NCc2cnc3n2CCN(CC2CC2)CC3)ncn1 | 2.24
Cn1cc(CCCNC(=O)NC2CCN(c3ccccc3)C2=O)cn1 (stereo not drawn) | -5.19
COc1cc2nc3n(c(=O)c2cc1OC)CCN(C(=O)C1CC1)CC3 | 20
CCc1cc(C(=O)NCC2CCN(Cc3cccc(C#N)c3)C2)on1 (stereo not drawn) | -1.72
O=C(NCCCN1CCOCC1)Nc1cnc2cc(Cl)ccc2c1O | 9.66
COc1cccc2c1OCCCN(c1nc(C)nc3c1CCNCC3)C2 | -5.98
NS(=O)(=O)NCc1cc(-c2ccco2)n(CC(F)(F)F)n1 | -5.08
CCOC(=O)c1sc2ccsc2c1CNC(=O)C(C)(C)C#N | -2.32
CNC(=O)CCCNCc1c(C(C)C)nn(C)c1N(C)C | 14.4
CC1CCN(C(=O)C(C)N2CCN(c3nccs3)CC2)CC1 (stereo not drawn) | -7
